In patent publication US10808007B2, “Desacetoxytubulysin H and analogs thereof” (WILLIAM MARSH RICE UNIVERSITY, priority 2015, dated 2020):
Read-outs that look alike come from different tables or passages of the source.

Tests used:
Format in all cases: cell-based
[1] = test system: MES SA (uterine sarcoma cells); assay: Cytotoxic assay (CellTiter-Glo, 72 h), MES SA; details: Homo sapiens, MES-SA, read-out: IC50 MES SA
[2] = test system: MES SA DX (multidrug resistant uterine sarcoma cells); assay: Cytotoxic assay (CellTiter-Glo, 72 h), MES SA DX; details: Homo sapiens
[3] = test system: HEK 293T (human embryonic kidney cells); assay: Cytotoxic assay (CellTiter-Glo, 72 h), HEK 293T; details: Homo sapiens, HEK-293T, read-out: IC50 HEK 293T
[4] = test system: NCI-60 human cancer cell line panel; assay: NCI-60 one-dose test; details: one-dose test (10 μM), NCI-60 panel
Description: (§1) A number of the synthesized compounds (i.e. Tb1-Tb23) were evaluated for their activity against a variety of cancer cell lines, namely the NCI-60 human cancer cell line panel representing leukemia, melanoma, lung, colon, brain, ovary, breast, prostate and kidney types of cancer through the In Vitro Cell Line Screening Project (IVCLSP) of the National Cancer Institute (NCI), and a summary of the results is shown in Table 1. […] As there was interest in the activity in certain other cell lines, these and the remaining compounds (Tb1-Tb41, PTb-D42 and PTb-D43) were subjected to further testing against MES SA (uterine sarcoma cells), MES SA DX (multidrug resistant uterine sarcoma cells), and HEK 293T (human embryonic kidney cells). […] Tubulysins are known to be substrates for Pgp pumps (Xiangming, et al., 2013; Kaur, et al., 2006; Szakacs, et al., 2006) as supported by the observed low activities of all tubulysins tested except Tb28, Tb32 and Tb33.

breast cancer cell lines = assay: NCI-60 cytotoxicity, breast cancer; details: Homo sapiens
Description: as §1

colon cancer cell lines = assay: NCI-60 cytotoxicity, colon cancer; details: Homo sapiens
Description: as §1

melanoma cell lines = assay: NCI-60 cytotoxicity, melanoma; details: Homo sapiens
Description: as §1

[5] = test system: prostate cancer cell lines; assay: NCI-60 cytotoxicity, prostate cancer; details: Homo sapiens
Description: as §1

[6] = test system: ovarian cancer cell lines; assay: NCI-60 cytotoxicity, ovarian cancer; details: Homo sapiens
Description: as §1

CNS cancer cell lines = assay: NCI-60 cytotoxicity, CNS cancer; details: Homo sapiens
Description: as §1

[7] = test system: leukemia cancer cell lines; assay: NCI-60 cytotoxicity, leukemia; details: Homo sapiens
Description: as §1

[8] = test system: non-small cell lung cancer cell lines; assay: NCI-60 cytotoxicity, non-small cell lung cancer; details: Homo sapiens
Description: as §1

renal cancer cell lines = assay: NCI-60 cytotoxicity, renal cancer; details: Homo sapiens
Description: as §1

| SMILES | IC50 ([1]; 72 h) [nM] | IC50 [2] [nM] | IC50 ([3]; 72 h) [nM] | one dose, mean growth % [4] [%] | GI50 (breast cancer cell lines; NCI-60, selected value) [nM] | GI50 (colon cancer cell lines; NCI-60, selected value) [nM] | GI50 (melanoma cell lines; NCI-60, selected value) [nM] | GI50 ([5]; NCI-60, selected value) [nM] | GI50 ([6]; NCI-60, selected value) [nM] | GI50 (CNS cancer cell lines; NCI-60, selected value) [nM] | GI50 ([7]; NCI-60, selected value) [nM] | GI50 ([8]; NCI-60, selected value) [nM] | GI50 (renal cancer cell lines; NCI-60, selected value) [nM] | other results |
| --- | --- | --- | --- | --- | --- | --- | --- | --- | --- | --- | --- | --- | --- | --- |
| CCC(C)[C@H](NC(=O)c1ccccn1)C(=O)N(C)[C@H](C[C@@H](OC(C)=O)c1nc(C(=O)NC23C4C5C2C2C3C4C52C(=O)OC)cs1)C(C)C (stereo in doubt) [Tb12, Methyl 4-(2-((1R,3R)-1-acetoxy-3-((2S,3S)—N,3-dimethyl-2-(picolinamido)pentanamido)-4-methyl-pentyl)thiazole-4-carboxamido)cubane-1-carboxylate] | > 50 | > 50 | > 50 | 84.90 | – | – | – | – | – | – | – | – | – | – |
| CCC(C)[C@H](NC(=O)c1ccccn1)C(=O)N(C)[C@H](C[C@@H](OC(C)=O)c1nc(C(=O)NC23CC(C(=O)OC)(C2)C3)cs1)C(C)C (stereo in doubt) [Tb15, Methyl 3-(2-((1R,3R)-1-acetoxy-3-((2S,3S)—N,3-dimethyl-2-(picolinamido)pentanamido)-4-methyl-pentyl)thiazole-4-carboxamido)bicyclo[1.1.1]pentane-1-carboxylate] | > 50 | > 50 | > 50 | 94.38 | – | – | – | – | – | – | – | – | – | – |
| CCC(C)[C@H](NC(=O)CN(C)C)C(=O)N(C)[C@H](C(=O)NC12C3C4C1C1C2C3C41C(=O)N[C@@H](Cc1ccccc1)C[C@H](C)C(=O)OC)C(C)C (stereo in doubt) [Tb18, Methyl (2S,4R)-4-(4-((S)-2-((2S,3S)-2-(2-(dimethylamino)acetamido)-N,3-dimethylpentanamido)-3-methylbutanamido)cubane-1-carboxamido)-2-methyl-5-phenylpentanoate] | > 50 | > 50 | > 50 | 98.48 | – | – | – | – | – | – | – | – | – | – |
| CCC(C)[C@H](NC(=O)[C@H]1CCCCN1C)C(=O)N(C)[C@H](C(=O)NC12CC(C(=O)N[C@@H](Cc3ccccc3)C[C@H](C)C(=O)OC)(C1)C2)C(C)C (stereo in doubt) [Tb19, Methyl (2S,4R)-4-(3-((S)-2-((2S,3S)—N,3-dimethyl-2-((R)-1-methylpiperidine-2 carboxamido)pentan amido)-3-methylbutanamido)bicyclo[1.1.1]pentane-1-carboxamido)-2-methyl-5-phenylpentanoate] | > 50 | > 50 | > 50 | 100.82 | – | – | – | – | – | – | – | – | – | – |
| CC[C@@H](C)[C@H](NC(=O)CN(C)C)C(=O)N(C)[C@H](C[C@@H](OC(C)=O)c1nc(C(=O)NC23CC(C(=O)OC)(C2)C3)cs1)C(C)C [Tb16] | > 50 | > 50 | > 50 | – | 123 | 98.1 | 46.1 | 303 | 99.1 | 127 | 15.1 | 85 | 186 | – |
| CC[C@@H](C)[C@H](NC(=O)[C@H]1CCCCN1C)C(=O)N(C)[C@H](C(=O)NC12C3C4C1C1C2C3C41C(=O)N[C@@H](Cc1ccccc1)C[C@H](C)C(=O)OC)C(C)C (stereo partly drawn) [Tb17, Methyl (2S,4R)-4-(4-((S)-2-((2S,3S)—N,3-dimethyl-2-((R)-1-methylpiperidine-2-carboxamido)penta-namido)-3-methylbutanamido)cubane-1-carboxamido)-2-methyl-5-phenylpentanoate] | > 50 | > 50 | > 50 | 97.37 | – | – | – | – | – | – | – | – | – | – |
| COC(=O)[C@@H](C)C[C@H](Cc1ccccc1)NC(=O)c1csc([C@@H](C[C@H](C(C)C)N(C)C(=O)[C@@H](NC(=O)[C@H]2CCCCN2C)C2CC2)OC(C)=O)n1 [Tb20, Methyl (2S,4R)-4-(2-((1R,3R)-1-acetoxy-3-((S)-2-cyclopropyl-N-methyl-2-((R)-1-methylpiperidine-2-carboxamido)acetamido)-4-methylpentyl)thiazole-4-carboxamido)-2-methyl-5-phenylpentanoate] | 0.046 | < 200 | 0.047 | – | – | 0.263 | 0.035 | 0.211 | – | 0.345 | – | – | – | GI50 (breast cancer cell lines; NCI-60): 0.044 nM; GI50 (colon cancer cell lines; NCI-60): 0.263 nM; IC50 [1]: 0.046 nM; GI50 (melanoma cell lines; NCI-60): 0.035 nM; GI50 ([5]; NCI-60): 0.211 nM; IC50 [3]: 0.047 nM; GI50 ([6]; NCI-60): 0.049 nM; GI50 (CNS cancer cell lines; NCI-60): 0.345 nM; GI50 ([7]; NCI-60): 0.098 nM; GI50 ([8]; NCI-60): 0.247 nM; GI50 (renal cancer cell lines; NCI-60): 0.27 nM |
| COC(=O)[C@@H](C)C[C@H](Cc1ccccc1)NC(=O)c1csc([C@@H](C[C@H](C(C)C)N(C)C(=O)[C@@H](NC(=O)CN(C)C)C2CC2)OC(C)=O)n1 [Tb21, Methyl (2S,4R)-4-(2-((6S,9R,11R)-6-cyclopropyl-9-isopropyl-2,8-dimethyl-4,7,13-trioxo-12-oxa-2,5,8-triazatetradecan-11-yl)thiazole-4-carboxamido)-2-methyl-5-phenylpentanoate] | 16.8 | > 50 | > 10 | – | 4.04 | 23.9 | 2.23 | 34.6 | 5.79 | 24.1 | 1.65 | 6.62 | 23.2 | – |
| COC(=O)[C@@H](C)C[C@H](Cc1ccccc1)NC(=O)c1csc([C@@H](C[C@H](C(C)C)N(C)C(=O)[C@@H](NC(=O)C23CC(NC(C)=O)(C2)C3)C2CC2)OC(C)=O)n1 [Tb22, Methyl (2S,4R)-4-(2-((1R,3R)-3-((S)-2-(3-acetamidobicyclo[1.1.1]pentane-1-carboxamido)-2-cyclopropyl-N-methylacetamido)-1-acetoxy-4-methylpentyl)thiazole-4-carboxamido)-2-methyl-5-phenylpentanoate] | > 50 | > 50 | > 50 | 49.38 | – | – | – | – | – | – | – | – | – | – |
| CNC12C3C4C1C1C2C3C41C(=O)N[C@H](C(=O)N(C)[C@H](C[C@@H](OC(C)=O)c1nc(C(=O)N[C@@H](Cc2ccccc2)C[C@H](C)C(=O)OC)cs1)C(C)C)C1CC1 (stereo partly drawn) [Tb23, Methyl (2S,4R)-4-(2-((1R,3R)-1-acetoxy-3-((S)-2-cyclopropyl-N-methyl-2-(4-(methylamino)cubane-1-carboxamido)acetamido)-4-methylpentyl)thiazole-4-carboxamido)-2-methyl-5-phenylpentanoate] | > 50 | > 50 | > 50 | – | 44.7 | 204 | 45.1 | 308 | 54.9 | 119 | 16.3 | 84.5 | 181 | – |
